Legend:
[1] = compared with administration of equivalent oral dosages; cited from earlier work
bladder tissue [2] = conditions: rabbits; intravesical instillation of crushed tablets; cited from earlier work
[3] = oral and rectal administration forms; cited from earlier work
[4] = stability of the aqueous solution during storage and transportation; type: physicochemical
Description: Accordingly, the invention provides for an aqueous trospium chloride solution prepared from two components, as described above. For the aqueous solution to remain stable for a long time during storage and transportation, the pH-value should be lower than 4.5. However, such a solution has never been considered suitable for administration to the bladder and is also unacceptable for physiological reasons. Therefore the invention assumes that the aqueous solution is prepared prior to administration with a pH-value equal to or greater than 4.5, in order to exclude from the outset ageing, storage and transportation problems.

[5] = plasma concentrations of trospium chloride after intravesicular instillation; type: in vivo; conditions: intravesicular instillation of 7.5 mg trospium chloride/20 ml; period of 12 hours; sensitive, validated measuring method
Description: It is particularly advantageous to prepare said aqueous solution with a pH-value≥4.5 immediately prior to administration, in order to prevent any decomposition of the active agent trospium chloride. In particular, the pH-value of the inventive formulation is 5.0 to 7.5, so that it falls entirely within the pH-value range of the normal urine of healthy humans. […] This was confirmed by measuring plasma concentrations of trospium chloride after intravesicular instillation of 7.5 mg trospium chloride/20 ml for a period of 12 hours.

[6] = tested on: isolated myocytes of the detrusor vesicae; conditions: greater than that of oxybutynin; cited from earlier work
[7] = tested on: smooth muscle cells of the detrusor; assay: internal investigations: direct (musculotropic) action on smooth muscle cells of the detrusor; type: cell-based
Source text: It will be appreciated that the active agent trospium chloride acts as an anticholinergic, i.e. it occupies receptors of the parasympathetic nervous system, without causing the effects induced by the natural neurotransmitter acetyl choline (neurotropic action). The anticholinergic power of trospium chloride in vitro is 20 times greater than that of oxybutynin (Eckert R. E., Wilhelm A., Schwantes U., Utz J. Alloussi S., Trautwein W. & Ziegler M., Modulation of the cytoplasmic Ca^2+ concentration of isolated myocytes of the detrusor vesicae by anticholinergics, Akt. Urol. 26, 46, 1995). […] These musculotropic characteristics are particularly important in the case of direct administration to the bladder.

bladder tissue [8] = assay: study on beagles concerning local compatibility following once daily intravesical instillation over 4 weeks; type: in vivo; conditions: selected formulation

| SMILES | absorption following intravesicular instillation [1] | inflammatory processes in the region of the bladder tissue (histological evaluation) (bladder tissue [2]) | absorption from the intestinal lumen into the system [3] | pH-value for the aqueous solution to remain stable for a long time [4] | plasma concentrations [5] | anticholinergic power in vitro, relative to oxybutynin [6] | direct action on smooth muscle cells of the detrusor (basal Ca^2+ flow) [7] | local compatibility (local adverse effects to the bladder tissue) (bladder tissue [8]) |
| --- | --- | --- | --- | --- | --- | --- | --- | --- |
| CCN(CC)CC#CCOC(=O)C(O)(c1ccccc1)C1CCCCC1 (centres unmarked) [oxybutynin] | absorbed to a greater extent | Inflammatory processes were detected |  |  |  |  |  |  |
| O=C(O[C@H]1C[C@H]2CC[C@@H](C1)[N+]21CCCC1)C(O)(c1ccccc1)c1ccccc1 [trospium chloride] |  |  | poor absorption | lower than 4.5 | At no time plasma concentrations were detected that were above the detection limit | 20 times | inhibition of the basal Ca^2+ flow | did not lead to local adverse effects to the bladder tissue |

Source: patent US5998430A, “Use of trospium chloride and 2-component system for the same” (Dr. R. Pfleger Chemische Fabrik GmbH, priority 1996, dated 1999)
